Test results published in patent US7803619B2, “Embryoid body-based screen” (Geneprotech, Inc., priority 2004, dated 2010).

Key:
[1] = test system: EB from ES cell line (ES-6) containing necdin-puromycin-IRES-β-galactosidase cassette; assay: Embryoid body neurogenesis screen: necdin promoter-driven β-galactosidase expression; assay type: cell-based, mouse; conditions: 48 h exposure
Experimental: A brief description of the procedure follows. A tagged ES cell line containing a stably integrated necdin-puromycin-IRES-β-galactosidase cassette was allowed to form EBs. One thousand cells in 200 μl media without LIF were plated in a 96-well PCR plate. On the third day, the EBs were transferred to a 96-well tissue culture plate coated with laminin. The medium was changed on the fourth day and appropriate small molecule compounds were added with each compound being assessed in triplicate. Six wells received no treatment and six wells received treatment with vehicle control (DMSO or ethanol diluted in similar manner as small molecule compounds). The cells were incubated with compounds for 48 hours, compounds removed by washing with PBS and cells allowed to grow and differentiate in media for 4 days. Cells were lysed on the fifth day and the lysates were analyzed for β-galactosidase expression. […] Two positive controls, 50 ng/ml nerve growth factor (NGF) and 1 uM retinoic acid (RA) (Sigma Chemical, St. Louis) and small molecule compounds (piperine, curcumin, rosmarinic acid, U0126, LY294002) were used for screening. Fold increase was calculated based on the respective vehicle control […] activity. […] This is not surprising since NGF is a stronger neurogenic growth factor than is RA. […]
An ES cell line (ES-6; Preliminary Studies Section C.2.) containing a stably integrated necdin-puromycin-IRES-β-galactosidase cassette was allowed to form EB. […] The medium was changed on the fourth day and appropriate small molecule compounds were added with each compound being assessed in triplicate. […] Cells were lysed on the fifth day and the lysates were analyzed for β-galactosidase expression. […] Fold increase was calculated based on the respective vehicle control β-galactosidase activity. […]
After addition of puromycin to the media, neuronal cells are the anticipated survivors and other cell types are expected to be eliminated. Since activity of the necdin promoter confers β-galactosidase expression, a quantitative measurement of β-galactosidase activity is performed. […]

murine ES cells = conditions: cited from earlier work
[2] = test system: myeloid leukemia HL60 cells; conditions: cited from earlier work
[3] = test system: endothelial cell culture system; conditions: cited from earlier work
chorioallantoic membrane = conditions: cited from earlier work
EB = conditions: cited from earlier work

## CC1=C(/C=C/C(C)=C/C=C/C(C)=C/C(=O)O)C(C)(C)CCC1 [RA, retinoic acid]
[1]; positive control, 1 uM
  Fold increase in neurogenesis (β-galactosidase activity relative to respective vehicle control): 11 fold

## O=C1O[C@H]([C@@H](O)CO)C(O)=C1O [vitamin C, ascorbic acid]
Murine ES cells
  Number of cardiac myocytes showing rhythmic contractile activity, positive for sarcomeric myosin and alpha-actinin: markedly increased

## boswellic acid acetate
[2]
  Differentiation into monocyte-like cells: induces differentiation

## O=C(/C=C/C=C/c1ccc2c(c1)OCO2)N1CCCCC1 [piperine]
[1]; small molecule compound at 10 μM, lysed on fifth day after removal
  Fold increase in neurogenesis (β-galactosidase activity relative to respective vehicle control): 3.3 fold

## O=C1CCC(N2C(=O)c3ccccc3C2=O)C(=O)N1 (centres unmarked) [thalidomide]
[3]
  Anti-angiogenic effect: no anti-angiogenic effect
Chorioallantoic membrane
  Anti-angiogenic effect: no anti-angiogenic effect
EB
  Anti-angiogenic effect: had anti-angiogenic effect

## nerve growth factor [NGF]
[1]; positive control, 50 ng/ml
  Fold increase in neurogenesis (β-galactosidase activity relative to respective vehicle control): 30 fold
